Source: article PMC5653977 (EMBO Molecular Medicine, 2017)
Counter-ions that a name gives are not always drawn.

What follows are compounds tested on NRG1-ERBB4 signaling (assay: Nrg1-ERBB4-PIK3R1 split TEV co-culture compound screen of the NIH Clinical Collection). Details: NIH Clinical Collection NCC-003 raw data; compounds ranked by Z-score; 'flagged' given instead of a Z-score.
Format: cell-based, human
Text: For our HTS‐compatible split TEV assay approach, human full‐length ERBB4‐Cyt1 was fused to the NTEV fragment, a TEV protease cleavage site (tevS) and the artificial co‐transcriptional activator Gal4‐VP16 (ERBB4‐NTEV‐tevS‐GV); human PIK3R1 was fused to the CTEV fragment (PIK3R1‐CTEV) (Fig 1A). Upon ERBB4 activation, PIK3R1 is recruited to the receptor resulting in a reconstituted protease activity that cleaves off GV. In turn, released GV translocates to the nucleus and binds to upstream activating sequences (UAS) to activate the transcription of a firefly luciferase reporter gene (Fig 1A). A constitutively expressed Renilla luciferase driven under the control of the human thymidine kinase (TK) promoter was used as control to address off‐target effects related to toxicity.
For small molecule screening, the NIH‐NCC Clinical Collection library (sets NCC‐003 and NCC‐201) was used containing 727 small molecules that are FDA‐approved and have a history in clinical applications (www.nihclinicalcollection.com). A Hamilton Labstar robot connected to 37 and 4°C incubators for cell incubation and compound storage and application (Cytomat automated incubator, ThermoScientific) and to a luciferase reader (Berthold Technologies) was used to automatically perform the screening. […] Each batch was screened three times.
For one 96‐well plate, 4 × 10^6 PC12 cells were harvested and diluted in 5 ml assay medium (phenol red‐free DMEM (low glucose, Life Technologies), 10% FCS, 5% HS, no antibiotics). The split TEV assay plasmids (2 μg pcDNA3_ERBB4‐NTEV‐tevS‐GV‐2xHA, 2 μg pTag4C_PIK3R1‐CTEV‐2xHA, 2 μg p5xUAS_firefly luciferase, 2 μg pTK_Renilla luciferase, and 0.5 μg pECFP‐C1 for examining transfection efficiency) were diluted in 2.5 ml Opti‐MEM (Life Technologies) and vortexed. In parallel, 20 μl of the transfection reagent Lipofectamine 2000 was diluted in 2.5 ml Opti‐MEM and vortexed.
For plating of one 96‐well plate, 10 ml suspension, containing the 4 × 10^6 in solution‐transfected cells, was placed in the bubble paddle reservoir of the Hamilton Cellstar robot. 100 μl was seeded per 96‐well using the 96‐tip pipetting head. The homogeneity of the cell suspension was guaranteed over time by mild stirring using the paddling device inside the reservoir. For five plates each, 50 ml of additional cell suspension was used to allow for losses of inaccessible volume.
The cells were allowed to express the plasmids for 24 h before compounds were added. Proper expression and transfection efficiency were verified by ECFP expression on a clear control plate. The compounds were applied in a final concentration of 10 μM using DMSO as diluent. […] Thirty minutes later, 10,000 Nrg1‐expressing PC12 cells in 100 μl assay medium were seeded on top. 24 h after addition of the compounds, the cells were lysed using 40 μl Passive Lysis buffer (Promega) and subjected to a Dual Luciferase Assay (Promega) according to the manufacturer's instructions. The data were analyzed in R Bioconductor using the package cellHTS2 (http://www.bioconductor.org/packages/devel/bioc/html/cellHTS2.html), assessed using the z‐score, and visualized using the program Mondrian (http://stats.math.uni-augsburg.de/mondrian/).

Structure (SMILES) | Z-SCORE
COC(=O)C1=C(C)NC(C)=C(C(=O)O[C@@H]2CCCN(Cc3ccccc3)C2)[C@@H]1c1cccc([N+](=O)[O-])c1.Cl (racemic) [BENIDIPINE HCl] | -1.41
Nc1nc(Cl)nc2c1ncn2[C@H]1C[C@H](O)[C@@H](CO)O1 [2-Chloro-2'-deoxyadenosine, reference compound] | -3.5
OCc1cccnc1 [3-PYRIDINEMETHANOL] | -1.1
CCCCCCCCCOc1ccc2[nH]cc(CCN)c2c1 [5-Nonyloxytryptamine] | flagged
O=c1cnn([C@@H]2O[C@H](CO)[C@@H](O)[C@H]2O)c(=O)[nH]1 [6-AZAURIDINE] | -1.32
O=C1CCc2ccc(OCCCCN3CCN(c4cccc(Cl)c4Cl)CC3)cc2N1 [ARIPIPRAZOLE] | -1.84
C[C@H]1[C@H](OC(=O)CCC(=O)O)O[C@@H]2O[C@@]3(C)CC[C@H]4[C@H](C)CC[C@@H]1[C@@]24OO3 [ARTESUNATE] | flagged

Same assay, conditions: compound screen of the NIH Clinical Collection, sheet raw data NCC-003; compounds ranked by Z-score

Structure (SMILES) | Z-SCORE
Cl.OC1CCCCC1N1CCC(c2ccccc2)CC1 (racemic) [(±)-Vesamicol hydrochloride] | -0.04
O=C1c2c(O)cc(O)cc2OC(c2ccc(O)c(O)c2)C1O (racemic) [TAXIFOLIN-(+/-)] | -0.12
C[N+]1(C)CCN(c2ccccc2)CC1.[I-] [1,1-DIMETHYL-4-PHENYLPIPERAZINIUM IODIDE] | 2.45
c1ccc(Cn2ccnc2)cc1 [1-BENZYLIMIDAZOLE] | -0.1
Nc1ccn([C@H]2CC[C@@H](CO)O2)c(=O)n1 [2',3'-DIDEOXYCYTIDINE] | 1.38
O=c1[nH]cnc2c1ncn2[C@H]1CC[C@@H](CO)O1 [2',3'-DIDEOXYINOSINE] | -0.13
NCCc1ccccn1 [2-(2-AMINOETHYL)PYRIDINE] | 2.15
Nc1nc(Cl)nc2c1ncn2[C@@H]1O[C@H](CO)[C@@H](O)[C@H]1O [2-CHLOROADENOSINE] | 0.61
Nc1ncnc2c1ncn2[C@@H]1O[C@H](CO)C[C@H]1O [3'-Deoxydenosine, reference compound] | 5.88
Nc1ccc(O)c(C(=O)O)c1 [5-Amino-2-hydroxy-benzoic acid] | 1.62
Nc1nc(=O)[nH]cc1F [5-FLUOROCYTOSINE] | -0.59
COc1ccc2[nH]cc(CCN)c2c1 [5-Methoxytryptamine] | 0.65
O=c1ncc(F)c[nH]1 [5-fluoro-2-pyrimidone] | -0.03
Nc1ccc2cn[nH]c2c1 [6-AMINOINDAZOLE] | 0.45
O=[N+]([O-])c1cccc2cn[nH]c12 [7-NITROINDAZOLE] | 0.29
Cc1occc(=O)c1O [118-71-8] | 0.13
CC=CC(=O)N(CC)c1ccccc1C [483-63-6] | -0.8

Structure (SMILES) | Z-SCORE
CN1C(=O)CC[C@H]1c1cccnc1 [(-)-Cotinine] | -0.57
C[C@H]1O[C@H](O[C@H]2[C@H](O)[C@@H](O)[C@@H](O[C@H]3[C@H](O)[C@@H](O)C(O)O[C@@H]3CO)O[C@@H]2CO)[C@H](O)[C@@H](O)[C@@H]1N[C@H]1C=C(CO)[C@@H](O)[C@H](O)[C@H]1O (stereo partly drawn) [ACARBOSE] | -0.8
CC(=O)Nc1ccc(CC(=O)O)cc1 [ACTARIT] | -0.12
COc1cc2nc(N(C)CCCNC(=O)C3CCCO3)nc(N)c2cc1OC (stereo not drawn) [ALFUZOSIN] | 0.03
Cc1[nH]cnc1CN1CCc2c(c3ccccc3n2C)C1=O [ALOSETRON HCl] | 0.99
CCCCC/C=C\C/C=C\C/C=C\C/C=C\CCCC(=O)Nc1ccc(O)cc1 [AM 404] | -1.01
Cc1c(C(=O)NN2CCCCC2)nn(-c2ccc(Cl)cc2Cl)c1-c1ccc(I)cc1 [AM-251] | -0.56
CC(NC(C)(C)C)C(=O)c1cccc(Cl)c1.Cl (stereo not drawn) [AMFEBUTAMONE HCl] | 0
CCCCc1oc2ccccc2c1C(=O)c1cc(I)c(OCCN(CC)CC)c(I)c1 [AMIODARONE HYDROCHLORIDE] | -0.19
CCOC(=O)OC(C)OC1=C(C(=O)Nc2ccccn2)N(C)S(=O)(=O)c2ccccc21 (stereo not drawn) [AMPIROXICAM] | 0.43
O=C1CN2Cc3c(ccc(Cl)c3Cl)N=C2N1 [ANAGRELIDE HCl] | -0.48
CC(C)(C#N)c1cc(Cn2cncn2)cc(C(C)(C)C#N)c1 [ANASTROZOLE] | -0.16
CC1CNc2c(cccc2S(=O)(=O)N[C@@H](CCCNC(=N)N)C(=O)N2CC[C@@H](C)C[C@@H]2C(=O)O)C1 (stereo partly drawn) [ARGATROBAN] | -0.29
CNCC[C@@H](Oc1ccccc1C)c1ccccc1 [ATOMOXETINE HCl] | 0.83
COc1ccc(CC2c3cc(OC)c(OC)cc3CC[N+]2(C)CCC(=O)OCCCCCOC(=O)CC[N+]2(C)CCc3cc(OC)c(OC)cc3C2Cc2ccc(OC)c(OC)c2)cc1OC (stereo not drawn) [ATRACURIUM BESYLATE] | -0.66
CN1CCCC(n2nc(Cc3ccc(Cl)cc3)c3ccccc3c2=O)CC1 (stereo not drawn) [AZELASTINE HCl] | -0.68

Same assay, conditions: compounds at 10 μM, 24 h; PC12 split TEV assay cells co-cultured with Nrg1-expressing PC12 cells; analysed with cellHTS2

Structure (SMILES) | Z-SCORE
CNCC(O)c1ccc(O)c(O)c1.Cl (racemic) [(+/-)-Epinephrine hydrochloride, reference compound] | -0.69
Cl.NCC(O)c1ccc(O)c(O)c1 (racemic) [(+/-)-NOREPINEPHRINE HYDROCHLORIDE, reference compound] | 1.11
CC(C)(S)C(N)C(=O)O (racemic) [DL-PENICILLAMINE, reference compound] | 2.02
COc1ccc([C@@H]2Sc3ccccc3N(CCN(C)C)C(=O)[C@@H]2OC(C)=O)cc1.Cl (relative stereo) [(+)-CIS-DILTIAZEM HYDROCHLORIDE, reference compound] | -0.13
Nc1nc(Cl)nc2c1ncn2[C@H]1C[C@H](O)[C@@H](CO)O1 [2-Chloro-2'-deoxyadenosine, reference compound] | -3.5
Nc1ncnc2c1ncn2[C@@H]1O[C@H](CO)C[C@H]1O [3'-Deoxydenosine, reference compound] | 5.88
CC(=O)O.NCc1ccc(S(N)(=O)=O)cc1 [4-(AMINOMETHYL)BENZENESULFONAMIDE ACETATE, reference compound] | 0.49
Nc1ncn([C@@H]2O[C@H](CO)[C@@H](O)[C@H]2O)c(=O)n1 [5-Azacytidine, reference compound] | flagged
O=c1[nH]cc(F)c(=O)[nH]1 [5-FLUOROURACIL, reference compound] | -1.82
CCCCC(=O)O[C@H]1CC[C@H]2[C@@H]3CCc4cc(O)ccc4[C@H]3CC[C@]12C [17-BETA-ESTRADIOL 17-VALERATE, reference compound] | -0.44
C#C[C@]1(OC(C)=O)CC[C@H]2[C@@H]3CCC4=CC(=O)CC[C@@H]4[C@H]3CC[C@@]21C [19-NORETHINDRONE ACETATE, reference compound] | -0.99
C#C[C@]1(O)CC[C@H]2[C@@H]3CCC4=CC(=O)CC[C@@H]4[C@H]3CC[C@@]21C [19-Norethindrone, reference compound] | 0.63
CCCC(=O)Nc1ccc(OCC(O)CNC(C)C)c(C(C)=O)c1 (stereo not drawn) [ACEBUTOLOL HYDROCHLORIDE, reference compound] | 0.4
CC(=O)OCC(=O)[C@@]12OC3(CCCC3)O[C@@H]1C[C@H]1[C@@H]3CCC4=CC(=O)C=C[C@]4(C)[C@@]3(F)[C@@H](O)C[C@@]12C [AMCINONIDE, reference compound] | -1.01
Clc1ccc2c(c1)C(N1CCNCC1)=Nc1ccccc1O2 [AMOXAPINE, reference compound] | 0.4
CC1(C)S[C@@H]2[C@H](NC(=O)[C@H](N)c3ccc(O)cc3)C(=O)N2[C@H]1C(=O)O [AMOXICILLIN CRYSTALLINE, reference compound] | -1.06
CC(C)NCC(O)COc1ccc(CC(N)=O)cc1 (stereo not drawn) [ATENOLOL, reference compound] | 0.6
CC(=O)Nc1nnc(S(N)(=O)=O)s1 [Acetazolamide, reference compound] | 0.2
COc1cc(C)c(/C=C/C(C)=C/C=C/C(C)=C/C(=O)O)c(C)c1C [Acitretin, reference compound] | -0.6
Nc1nc2c(ncn2COCCO)c(=O)[nH]1 [Acyclovir, reference compound] | 0.99
